The record followed here is PubChem BioAssay (NCI).

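Cultured in 96-well plates, cells were exposed to test compound for 48 hours across five concentrations. TGI: concentration producing complete growth inhibition.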

Test systems include SF-268 CNS; SR leukemia; NCI-H522 lung; HL-60(TB) leukemia; SNB-19 CNS; DU-145 prostate; MALME-3M melanoma; CCRF-CEM leukemia; NCI/ADR-RES ovarian; HT29 colon; SN12C renal; M14 melanoma.
Common to all, as to assay: NCI-60 cell line screen, 48 h

Consider `O=C1CCc2ccc(O)c(c2)Oc2ccc(cc2)C(Sc2ccccc2)CCO1` (centres undefined), for which the TGI in the test with SF-268 CNS was 42.4 µM; in the test with SR leukemia it was 76 µM; with NCI-H522 lung, 27.7 µM; in the test on HL-60(TB) leukemia, above 100 µM; in the test on SNB-19 CNS it was 39.8 µM; with DU-145 prostate it was 46.6 µM. In addition, the TGI in the test with MALME-3M melanoma is 27.9 µM; in the test with CCRF-CEM leukemia, above 100 µM; with NCI/ADR-RES ovarian, 31.4 µM; in the test on HT29 colon it was 30.1 µM; in the test on SN12C renal, 29.7 µM; in the test on M14 melanoma, 32.1 µM.

Take `COc1ccc2c(c1)CCCN1CCc3ccccc3C21` (centres undefined): the TGI was above 100 µM in the test on SF-268 CNS; 61.2 µM with SR leukemia; above 100 µM in the test on NCI-H522 lung; 43.3 µM in the test with HL-60(TB) leukemia; above 100 µM in the test with SNB-19 CNS; above 100 µM with DU-145 prostate. The TGI in the test with MALME-3M melanoma is above 100 µM; in the test on CCRF-CEM leukemia it was above 100 µM; in the test with NCI/ADR-RES ovarian it was 49.5 µM; in the test with HT29 colon, above 100 µM; with SN12C renal it was 77.7 µM; with M14 melanoma it was 51.5 µM.

`CCN(CC)CCN(C)c1ccc(CO)c2c1C(=O)c1ccccc1S2=O` (centres undefined): the TGI with SF-268 CNS was 35.9 µM; in the test with SR leukemia, 5.53 µM; in the test with NCI-H522 lung, 4.23 µM; in the test on HL-60(TB) leukemia it was 51.8 µM; in the test with SNB-19 CNS, 26.9 µM; in the test with DU-145 prostate, 28.3 µM. Besides, the TGI was found to be 27.2 µM in the test with MALME-3M melanoma; 9.96 µM in the test with CCRF-CEM leukemia; 3.48 µM in the test on NCI/ADR-RES ovarian; 2.95 µM with HT29 colon; 28.9 µM with SN12C renal; 4.11 µM with M14 melanoma.

In the case of `COC(=O)CCNC(=O)OCc1ccccc1`, the TGI with SF-268 CNS, in the test with SR leukemia, with NCI-H522 lung, with HL-60(TB) leukemia, in the test on SNB-19 CNS and in the test with DU-145 prostate was above 100 µM in each case. In addition, the TGI in the test on MALME-3M melanoma, with CCRF-CEM leukemia, in the test on NCI/ADR-RES ovarian, with HT29 colon, in the test on SN12C renal and with M14 melanoma was above 100 µM in each case.

Turning to `CC(C)=CCC[C@@H](C)C1=C(O)C(Nc2ccccc2Cl)=C(C)C(=O)C1=O`, the TGI is above 75 µM with SF-268 CNS; 72.1 µM with SR leukemia; 22.7 µM in the test with NCI-H522 lung; 4.16 µM in the test on HL-60(TB) leukemia; above 75 µM in the test with SNB-19 CNS; above 75 µM in the test with DU-145 prostate. Further, the TGI in the test with MALME-3M melanoma was 29.3 µM; in the test on CCRF-CEM leukemia it was above 21.3 µM; with NCI/ADR-RES ovarian, 11.9 µM; in the test on HT29 colon, 26.3 µM; with SN12C renal it was above 75 µM; in the test on M14 melanoma, above 59.9 µM.

With `CC(C)C(OC(=O)c1ccc(NCC2=CC(=O)C=CC2=O)cc1)C(C)C`, the TGI in the test on SF-268 CNS is 31.9 µM; in the test on SR leukemia, 11.9 µM; in the test on NCI-H522 lung it was 2.85 µM; in the test on HL-60(TB) leukemia, 3.96 µM; with SNB-19 CNS, 53.5 µM; in the test on DU-145 prostate, 65.5 µM. Besides, the TGI came out at 25.1 µM in the test on MALME-3M melanoma; 2.36 µM in the test on CCRF-CEM leukemia; 19.8 µM in the test with NCI/ADR-RES ovarian; 26.3 µM in the test on HT29 colon; 35.8 µM in the test on SN12C renal; 19.7 µM in the test with M14 melanoma.

In the case of `COc1c(C(=O)NCCN(CCNC(=O)c2cccc(-c3cccc(C(=O)N(C)C)c3OC)c2OC)CCNC(=O)c2cccc(-c3cccc(C(=O)N(C)C)c3OC)c2OC)cccc1-c1cccc(C(=O)N(C)C)c1OC`, the TGI with SF-268 CNS was 47.2 µM; in the test on SR leukemia, 71.5 µM; in the test on NCI-H522 lung, 43.5 µM; with HL-60(TB) leukemia it was 69.5 µM; in the test on SNB-19 CNS, above 100 µM; in the test with DU-145 prostate, above 100 µM. Moreover, the TGI with MALME-3M melanoma was 39.6 µM; with CCRF-CEM leukemia, 72.7 µM; in the test on NCI/ADR-RES ovarian, above 100 µM; in the test with HT29 colon, above 100 µM; with SN12C renal it was above 100 µM; in the test with M14 melanoma it was above 100 µM.

Regarding `O=C1Nc2nccnc2C(=O)N2CCC[C@@H]12`, the TGI in the test with SF-268 CNS, with SR leukemia, with NCI-H522 lung, in the test on HL-60(TB) leukemia, with SNB-19 CNS and in the test on DU-145 prostate was above 100 µM throughout. Further, the TGI with MALME-3M melanoma, in the test with CCRF-CEM leukemia, in the test with NCI/ADR-RES ovarian, with HT29 colon, in the test with SN12C renal and with M14 melanoma was above 100 µM each time.

With `O=C(NNC(=S)NC1CCCCC1)C12CC3CC(CC(C3)C1)C2`, the TGI in the test on SF-268 CNS, with SR leukemia, with NCI-H522 lung, with HL-60(TB) leukemia, in the test on SNB-19 CNS and in the test with DU-145 prostate was above 100 µM in each case. In addition, the TGI in the test on MALME-3M melanoma, in the test with CCRF-CEM leukemia, in the test on NCI/ADR-RES ovarian, in the test on HT29 colon, in the test on SN12C renal and in the test on M14 melanoma was above 100 µM throughout.

Regarding `COC(C)(C)/C=C/c1[nH]c2ccccc2c1CC(=O)NCCc1cn(C(c2ccccc2)(c2ccccc2)c2ccccc2)cn1`, the TGI with SF-268 CNS is above 100 µM; with SR leukemia it was 5.8 µM; with NCI-H522 lung, 14.3 µM; with HL-60(TB) leukemia, 8.88 µM; in the test on SNB-19 CNS, above 100 µM; in the test with DU-145 prostate, above 89.3 µM. The TGI in the test with MALME-3M melanoma is 11.7 µM; in the test with CCRF-CEM leukemia, above 100 µM; in the test on NCI/ADR-RES ovarian, above 100 µM; in the test with HT29 colon, above 21.5 µM; in the test on SN12C renal, 19.2 µM; in the test with M14 melanoma, 17.3 µM.

For `Cc1ccc2nc(C(C)C)c(=O)[nH]c2c1`, the TGI in the test with SF-268 CNS, with SR leukemia, in the test with NCI-H522 lung, in the test on HL-60(TB) leukemia, in the test on SNB-19 CNS and in the test on DU-145 prostate was above 100 µM in each case. Moreover, the TGI in the test on MALME-3M melanoma, with CCRF-CEM leukemia, in the test with NCI/ADR-RES ovarian, with HT29 colon, in the test on SN12C renal and with M14 melanoma was above 100 µM each time.

With `COc1ccccc1C(O)[C@@H]1C[C@@H]2[C@H]3CC[C@@](C)([C@@H]2O1)C3(C)C` (some centres undefined), the TGI with SF-268 CNS worked out at 58 µM; in the test on SR leukemia, 48.3 µM; in the test on NCI-H522 lung it was 38.5 µM; in the test on HL-60(TB) leukemia, 49.1 µM; with SNB-19 CNS, 39 µM; in the test with DU-145 prostate it was 49.6 µM. Moreover, the TGI is 30.2 µM in the test with MALME-3M melanoma; 44.1 µM in the test with CCRF-CEM leukemia; 42 µM in the test on NCI/ADR-RES ovarian; 39.1 µM with HT29 colon; 30.3 µM in the test on SN12C renal; 40.1 µM with M14 melanoma.

Turning to `CCC(C)[C@@H](Nc1c(O)c2c(c(O)c1Cl)C(=O)C=CC2=O)C(=O)OC` (some centres undefined), the TGI with SF-268 CNS is above 10 µM; with SR leukemia, 4.49 µM; with NCI-H522 lung, 4.92 µM; with HL-60(TB) leukemia, 5.93 µM; in the test on SNB-19 CNS, above 10 µM; in the test with DU-145 prostate it was above 10 µM. Besides, the TGI is 5.14 µM in the test on MALME-3M melanoma; 4.98 µM in the test with CCRF-CEM leukemia; above 10 µM in the test with NCI/ADR-RES ovarian; above 10 µM in the test with HT29 colon; above 10 µM with SN12C renal; 9.41 µM in the test on M14 melanoma.

Turning to `CC(=O)OCC1OC(n2c3c(c(-c4ccc(Cl)cc4)c(C#N)c2=S)CCCC3)C(OC(C)=O)C(OC(C)=O)C1OC(C)=O` (centres undefined), the TGI in the test with SF-268 CNS, in the test with SR leukemia, in the test with NCI-H522 lung, in the test on HL-60(TB) leukemia, with SNB-19 CNS and in the test with DU-145 prostate was above 100 µM throughout. Also, the TGI in the test with MALME-3M melanoma, in the test with CCRF-CEM leukemia, with NCI/ADR-RES ovarian, in the test on HT29 colon, in the test with SN12C renal and in the test with M14 melanoma was above 100 µM throughout.

Consider `O=[N+]([O-])c1ccc(-n2nc3ccc4c(no[n+]4[O-])c3n2)cc1`, for which the TGI with SF-268 CNS, in the test on SR leukemia, with NCI-H522 lung, with HL-60(TB) leukemia, in the test with SNB-19 CNS and in the test on DU-145 prostate was above 100 µM in each case. Besides, the TGI with MALME-3M melanoma, in the test on CCRF-CEM leukemia, in the test on NCI/ADR-RES ovarian, with HT29 colon, with SN12C renal and in the test with M14 melanoma was above 100 µM throughout.

For the compound `Cc1cc(=O)oc2cc(OCC(O)COC(C)C)ccc12` (centres undefined), the TGI with SF-268 CNS, in the test on SR leukemia, with NCI-H522 lung, in the test with HL-60(TB) leukemia, with SNB-19 CNS and in the test with DU-145 prostate was above 100 µM throughout. The TGI in the test on MALME-3M melanoma, with CCRF-CEM leukemia, with NCI/ADR-RES ovarian, in the test with HT29 colon, in the test on SN12C renal and with M14 melanoma was above 100 µM throughout.

`Cc1ccc2c(=O)cc(-c3ccc4ccccc4c3)[nH]c2n1`: the TGI in the test with SF-268 CNS is above 100 µM; in the test on SR leukemia, 5.59 µM; in the test with NCI-H522 lung, 20.5 µM; in the test on HL-60(TB) leukemia it was 4.18 µM; with SNB-19 CNS, above 100 µM; in the test with DU-145 prostate it was above 100 µM. The TGI was above 100 µM with MALME-3M melanoma; 14.6 µM in the test on CCRF-CEM leukemia; 48.5 µM with NCI/ADR-RES ovarian; above 100 µM with HT29 colon; above 100 µM in the test on SN12C renal; above 100 µM in the test with M14 melanoma.
